Values of other authors in patent US20070071683A1, “Ultrasonic concentration of carrier particles” (The Regents of the University of California, priority 2005, published 2007).

Test system: tumor
Details: paclitaxel alone

SMILES: CC(=O)O[C@H]1C(=O)[C@@]2(C)[C@H]([C@H](OC(=O)c3ccccc3)[C@]3(O)C[C@H](OC(=O)[C@H](O)[C@@H](NC(=O)c4ccccc4)c4ccccc4)C(C)=C1C3(C)C)[C@]1(OC(C)=O)CO[C@@H]1C[C@@H]2O [paclitaxel]
- effect on tumor volume: did not affect tumor volume
